As a reminder, the koff is the first-order rate constant of dissociation. The low end stands for slow dissociation, the high end for fast dissociation. In general, kon refers to a measure of how fast the partners come together. A lower kon goes with slow association. In general, Kd refers to a measure of binding affinity in units of concentration. A lower Kd goes with tighter binding.

One data set has as its target T1, chip-linked Cys-MB (Homo sapiens, UniProt P07988, DEL226-262).
T1 construct: made in house; host or cells: chemical solid-phase peptide synthesis (Fmoc), no expression host
The data set can be described thus: SPR binding to chip-linked Cys-MB. The following applies: HBS-EP buffer pH 7.4 with 0.005% P20, 37°C, 1 µg peptide/ml, mean; for koff / kon: 50 µl/min. Here is the method: (§1) The respective binding affinities of S-MB and MB, both to themselves (self-association) and to each other (cross-association), were measured with surface plasmon resonance (SPR) spectroscopy using a Biacore 3000 system (Biacore, Uppsala, Sweden), [59]. S-MB and MB, each with a cysteine added to its N-terminus, were chemically linked to a thiol Biacore chip (BR-1000-14, research grade, containing a carboxymethylated dextran matrix covalently attached to a gold film). Solutions of peptide in HBS-EP buffer (i.e., 10 mM Hepes, pH 7.4, 150 mM NaCl, 3 mM EDTA, 0.005% surfactant P20) were then flowed over the chip-linked peptide at a flow rate of 50 µl/min to determine binding affinity at 37°C. Assessment of peptide binding was determined with sensorgrams, in which the arbitrary response units (RU) were plotted as a function of time. Binding associated with control medium containing no peptide was subtracted from final affinity curves, and mean “on” and “off” rate constants (kon and koff) and the dissociation equilibrium constant (KD = koff/kon) were calculated using BIAevaluation Software Version 4.1 based on curve fitting form measurements at 1 µg peptide/ml buffer concentration. The sensor surface was regenerated using 10 mM HCl between sample injections.
On the technique in general: SPR reads the build-up and loss of mass on a sensor chip optically.

A further data set concerns the target T2, chip-linked Cys-S-MB (Homo sapiens, UniProt P07988, DEL226-262).
T2 construct: made in house; host or cells: chemical solid-phase peptide synthesis (Fmoc), no expression host
T2 sequence (P07988 with tags, fused parts or gaps DEL226-262): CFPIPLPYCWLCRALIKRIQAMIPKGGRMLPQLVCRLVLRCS
The data set can be described thus: SPR binding to chip-linked Cys-S-MB. Particulars: HBS-EP buffer pH 7.4 with 0.005% P20, 37°C, 50 µl/min, 1 µg peptide/ml; mean. The method, then:
as §1

The conditions of data set [1]: FTIR, methanol; ref [30]; cited from earlier work. The text has this:
Although the “10 nsec” MD simulation of dimer S-MB provides a reasonable framework to account for our SDS-PAGE and SPR results (Figs. 8 and 10), it is worthwhile to consider other structural models by which the N-terminal insertion sequence may promote the self-association of S-MB. One possible alternative is that oligomeric S-MB may be due to the N-terminal sequence (residues 1-7) forming β-sheet. The N-terminal SP-B(1–9) (Fig. 2) was earlier proposed to act as a ‘biochemical Velcro®,’ facilitating in vivo either the aggregation of SP-B or the interactions of SP-B with SP-C [50]. In support ...

A short description of data set [2]: Captive bubble surfactometry, dynamic surface activity. Particulars: for minimum surface tension: 1.5 mol% in synthetic lipids 16:10:6:1:2 (weight) DPPC:POPC:POPG:POPE:cholesterol, 20 cycles/min, ten cycles, 37°C, n = 4. The data set is classed as physicochemical. Here is the method:
The captive bubble surfactometer used here was a fully-computerized version of that described by Schurch and co-workers [79]–[81]. In brief, the sample chamber of the apparatus was cut from high-quality cylindrical glass tubing (10 mm inner diameter). A Teflon® piston with a tight O-ring seal was fitted into the glass tubing from the top end, with a plug of buffered 1% agarose gel inserted between the piston and the surfactant solution that was added through a stainless steel port from the other end of the sample chamber. The chamber and piston were vertically mounted in a steel rack, the height of which was regulated by a precision micrometer gear. In a typical experiment, the chamber was filled with a buffered salt solution (140 mM NaCl, 10 mM HEPES, 2.5 mM CaCl2, pH 6.9) containing 10% sucrose. One µl of surfactant solution containing 35 µg of lipid was added to this subphase, which was stirred by a small magnetic bar at 37°C. The subphase volume in the sample chamber averaged 0.7 ml (0.5–1 ml), resulting in a final average surfactant lipid concentration of 50 µg/ml (35–75 µg/ml). An air bubble approximately 7 mm in diameter (∼200 µl in volume) was then introduced within the sample chamber and subjected to cyclic volume (surface area) changes by systematically varying the height of the steel rack following a 5 min pause to allow adsorption to the air-water interface. The ionic composition of the buffered agarose plug minimized bubble adhesion to the plug during cycling, so that an uninterrupted bubble interface was maintained. […] Bubble images were continuously monitored during compression-decompression using a digital video camera (PULNIX Model TM-200, Pulmix America Inc, Sunnyvale, CA) and a professional video recorder (Panasonic AG-1980P, Secaucus, NJ) coupled to a computer with an Intel Pentium 4 processor. […] Bubble areas and volumes were calculated by an original algorithm relating bubble height and diameter to areas of revolution, and bubble surface tension was determined by the method of Malcolm and Elliot. […]

Data set [3] deals with ventilated rats with ARDS induced by in vivo lavage. The data set can be described thus: Ventilated lung-lavaged rat model of ARDS. Also noted: species or system Sprague-Dawley rats. Particulars: n = 8–10; for relative order of pulmonary activity (oxygenation and compliance): 90 min after intratracheal 100 mg/kg surfactant; for arterial oxygenation (PaO2) / dynamic lung compliance: synthetic lipids +1.5 mol% peptide, 90 min; for arterial oxygenation (PaO2): 100% oxygen. Here is the method:
Animal experiments were performed under established protocols approved by the Animal Care and Use Committee at the Los Angeles Biomedical Research Institute at Harbor-UCLA Medical Center. Anesthesia, surgery, lavage, ventilation, and monitoring methods used have been detailed previously [35]–[37]. Briefly, adult male Sprague-Dawley rats weighing 200–225 g were anesthetized with 35 mg/kg pentobarbital sodium and 80 mg/kg ketamine by intraperitoneal injection, intubated, and ventilated with a rodent ventilator (Harvard Apparatus, South Natick, MA) with 100% oxygen, a tidal volume of 7.5 ml/kg and a rate of 60/min. An arterial line was placed in the abdominal aorta for measurements of arterial blood pressure and blood gases. Rats were paralyzed with 1 mg/kg pancuronium bromide intravenously. Only animals with PaO2 values >400 torr while ventilated with 100% oxygen and with normal blood pressure values were included in the experiments. Airway pressures were measured with a pressure transducer (Gould Inc., Cleveland, OH) and tidal volume with a pneumotachometer (Validyne, Northridge, CA) connected to a multi-channel recorder (Gould Inc., Cleveland, OH). The lungs were lavaged 8–12 times with 8 ml of pre-warmed 0.9% NaCl. After the PaO2 in 100% oxygen had reached stable values of <100 torr, the rats were treated with 100 mg/kg of experimental surfactant by intratracheal instillation. Arterial blood gases, tidal volume and airway pressures were determined at 15 min intervals throughout each experiment. Dynamic lung compliance was calculated by dividing tidal volume/kg body weight by changes in airway pressure (peak inspiratory pressure minus positive end-expiratory pressure) (mL/kg/cmH2O). Ninety minutes after surfactant instillation, rats were killed with 200 mg/kg pentobarbital sodium intravenously. Each treatment group consisted of 8–10 animals.

Data set [4] deals with T3, Cys-MB (Mini-B with a cysteine added to its N-terminus, chip-linked) (human).
T3 construct: cysteine added to the N-terminus to link the peptide to the thiol Biacore chip; surfactant protein B (SP-B), human, residues 8-25; numbers count on: the mature protein (79 residues); surfactant protein B (SP-B), human, residues 63-78; Immobilised on the SPR chip; also called chipped MB; N-terminal Cys-MB
T3 chain: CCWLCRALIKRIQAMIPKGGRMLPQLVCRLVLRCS
Kind of data set: SPR; Biacore 3000; Cys-MB or Cys-S-MB linked to a thiol chip; MB or S-MB at 1 µg peptide/ml in HBS-EP (10 mM Hepes, pH 7.4, 150 mM NaCl, 3 mM EDTA, 0.005% surfactant P20) flowed over at 50 µl/min, 37°C; constants from curve fitting at the one concentration. Particulars: both partners purified.

In data set [5] the target is T4, Cys-S-MB (Super Mini-B with a cysteine added to its N-terminus, chip-linked) (human).
T4 construct: cysteine added to the N-terminus to link the peptide to the thiol Biacore chip; surfactant protein B (SP-B), human, residues 1-25; numbers count on: the mature protein (79 residues); surfactant protein B (SP-B), human, residues 63-78; Immobilised on the SPR chip; also called chipped S-MB; N-terminal Cys-S-MB
T4 chain: T2 sequence (P07988 with tags, fused parts or gaps DEL226-262)
The description is as above. The following applies: both partners purified.

[6] abbreviates: intratracheal 100 mg/kg surfactant.

Where a SMILES comes first, the peptide text is derived from it. Bridges are numbered along the chain shown (N, C = ends). Where no end group is shown, it is not given here.

On to “FPIPLPYCWLCRALIKRIQAMIPKGGRMLPQLVCRLVLRCS (disulfide 8-40, 11-34) [S-MB]”, for which, on chip-linked Cys-MB, the koff is 0.00736 s⁻¹ and the kon was 141000 M⁻¹ s⁻¹. At chip-linked Cys-S-MB, this molecule came in with a koff of 0.000901 s⁻¹ and a kon of 44700 M⁻¹ s⁻¹.

As to “SP-B(1–9): N-terminal SP-B(1–9) peptide (FPIPLPYCW; Pulmonary surfactant-associated protein B; UniProt P07988 201-209, looked up, fragment)”, in data set [1], the β-sheet content is reported as 26.3% and the “β-sheet content in residues” value was about 2.4 residues.

With `CC[C@H](C)[C@@H]1NC(=O)[C@H](CCCNC(=N)N)NC(=O)[C@H](CCCCN)NC(=O)[C@H]([C@@H](C)CC)NC(=O)[C@H](CC(C)C)NC(=O)[C@H](C)NC(=O)[C@H](CCCNC(=N)N)NC(=O)[C@@H]2CSSC[C@H](NC(=O)[C@H](C(C)C)NC(=O)[C@H](CC(C)C)NC(=O)[C@H](CCC(N)=O)NC(=O)[C@@H]3CCCN3C(=O)[C@H](CC(C)C)NC(=O)[C@H](CCSC)NC(=O)[C@H](CCCNC(=N)N)NC(=O)CNC(=O)CNC(=O)[C@H](CCCCN)NC(=O)[C@@H]3CCCN3C(=O)[C@H]([C@@H](C)CC)NC(=O)[C@H](CCSC)NC(=O)[C@H](C)NC(=O)[C@H](CCC(N)=O)NC1=O)C(=O)N[C@@H](CCCNC(=N)N)C(=O)N[C@@H](CC(C)C)C(=O)N[C@@H](C(C)C)C(=O)N[C@@H](CC(C)C)C(=O)N[C@@H](CCCNC(=N)N)C(=O)N[C@H](C(=O)N[C@@H](CO)C(=O)O)CSSC[C@H](N)C(=O)N[C@@H](Cc1c[nH]c3ccccc13)C(=O)N[C@@H](CC(C)C)C(=O)N2` [MB] (H-CWLCRALIKRIQAMIPKGGRMLPQLVCRLVLRCS-OH; disulfide 1-33, 4-27), at chip-linked Cys-MB, the koff came to 0.0168 s⁻¹ and the kon came out at 91900 M⁻¹ s⁻¹. The molecule also showed a Kd at chip-linked Cys-MB (KD = koff/kon) of 183 nM. For the same molecule, on chip-linked Cys-S-MB, the koff came to 0.00806 s⁻¹ and the association rate constant (kon) was 200000 M⁻¹ s⁻¹.

Take H-FPIPLPYC-NH2 [SP-B(1–8)]: the minimum surface tension in data set [2] amounted to 20 mN/m. Further, the “statistical comparison of minimum surface tension” value in data set [2] (after ten cycles, versus S-MB, MB and pig SP-B surfactants) is “significantly higher”. Besides, in data set [3], the “relative order of pulmonary activity (oxygenation and compliance)” value is “S-MB > MB > pig SP-B > SP-B(1–8)> lipids alone”. Moreover, in data set [3] (setting [6]), the “arterial oxygenation (PaO2)” value is recorded as “minimal effects” and the dynamic lung compliance result was “minimal effects”.

B1: pig SP-B: native pig SP-B, positive control (protein, UniProt P15782 1-79, looked up)
Pulmonary …: FPIPLPFCWLCRTLIKRIQAVVPKGVLLKAVAQVCHVVPLPVGGICQCLAERYIVICLNMLLDRTLPQLVCGLVLRCSS
modifications: Pulmonary surfactant-associated protein B
notes: native pig SP-B, positive control
B1 gave a minimum surface tension in data set [2] of under 3 mN/m. In addition, the “relative order of pulmonary activity (oxygenation and compliance)” value in data set [3] was “S-MB > MB > pig SP-B > SP-B(1–8)> lipids alone”. Further, in data set [3] (setting [6]), the “arterial oxygenation (PaO2)” value was “increased quickly”; the dynamic lung compliance result is “increased quickly”; the “oxygenation and compliance versus SP-B1-8 and lipids only surfactants” value is “consistently surpassed the performance of SP-B1-8 and lipids only surfactants (p<0.001)”; the “significance of differences in oxygenation and compliance between S-MB, MB and pig SP-B” value is “statistically significant (p<0.05) starting at 30 min after surfactant instillation”.

B2: Mini-B (peptide)
chain: CWLCRALIKRIQAMIPKGGRMLPQLVCRLVLRCS
notes: surfactant protein B (SP-B), human, residues 8-25 (N-terminal helix region); numbers count on: the mature protein (79 residues); surfactant protein B (SP-B), human, residues 63-78 (C-terminal helix region); Oxidised form with intramolecular disulfides Cys-8 to Cys-40 and Cys-11 to Cys-34 (S-MB numbering); also called MB; source: synthetic peptide (Fmoc solid phase, HPLC-purified, air-oxidised)
B2: in data set [4], the equilibrium dissociation constant (Kd) turned out to be 183 nM, the koff was 0.0168 s⁻¹ and the kon was determined as 91900 M⁻¹ s⁻¹. For the same molecule, in data set [5], the Kd was 40.4 nM, the dissociation rate constant (koff) came out at 0.00806 s⁻¹ and the kon came out at 200000 M⁻¹ s⁻¹.

(Values after paper PMC2805716, “Critical Structural and Functional Roles for the N-Terminal Insertion Sequence in Surfactant Protein B Analogs” (PLoS ONE, 2010).)
